Legend:
falcipain-2 [1] = biological target: T1, falcipain-2 (Plasmodium falciparum, UniProt Q8I6U4); assay: fluorometric Z-LR-AMC kinetic assay with refolded recombinant enzyme; global fit to mixed inhibition model; format: biochemical
T1 construct: gene FP2A

falcipain-2 [2] = biological target: T1, falcipain-2; assay: fluorometric Z-LR-AMC kinetic assay with refolded recombinant enzyme; global fit to competitive and Morrison equations; reversibility by rapid dilution; format: biochemical
[3] = tested on: Cc1cc(=O)oc2cc(NC(=O)[C@H](CCCNC(=N)N)NC(=O)[C@H](CC(C)C)NC(=O)OCc3ccccc3)ccc12; assay: purified protein; settings: accommodates completely within falcipain-2 active site

T1 sequence (Q8I6U4 244-484): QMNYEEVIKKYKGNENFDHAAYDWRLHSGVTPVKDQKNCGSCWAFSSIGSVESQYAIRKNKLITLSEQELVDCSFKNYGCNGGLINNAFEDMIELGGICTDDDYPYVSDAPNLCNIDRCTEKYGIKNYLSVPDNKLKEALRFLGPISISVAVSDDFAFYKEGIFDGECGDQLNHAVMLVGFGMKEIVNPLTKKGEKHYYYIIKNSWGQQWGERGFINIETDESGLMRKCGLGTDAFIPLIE

For C=C1c2cccc(O)c2C(=O)C2=C(O)[C@]3(O)C(=O)C(C(N)=O)=C(O)[C@@H](N(C)C)[C@@H]3[C@@H](O)[C@H]12 [methacycline], the Ki (falcipain-2 [1]) was 84.4 ± 6.5 µM.
With CC(C)(F)C[C@H](N[C@@H](c1ccc(-c2ccc(S(C)(=O)=O)cc2)cc1)C(F)(F)F)C(=O)NC1(C#N)CC1 [odanacatib] the Ki (falcipain-2 [2]) was 0.0982 ± 0.0102 µM.
For falcipain-2 (Plasmodium falciparum 3D7), the Km [3] was 4.8 µM.
